Data published in paper PMC6152622, “Synthesis and Evaluation of Phenylxanthine Derivatives as Potential Dual A2AR Antagonists/MAO-B Inhibitors for Parkinson’s Disease” (Molecules : A Journal of Synthetic Chemistry and Natural …, 2017).
Read-outs that look alike come from different tables or passages of the source.

Legend:
recombinant human MAO-B = molecular target: T1, recombinant human MAO-B (Homo sapiens, UniProt P27338); assay: MAO-B inhibition, MAO-Glo commercial kit; assay type: biochemical; details: Ki converted from IC50 by Cheng-Prusoff; duplicate, mean ± SD; read-out: Ki hMAO-B
T1 construct: purchased Sigma-Aldrich Corporation
T1 sequence (P27338 1-520): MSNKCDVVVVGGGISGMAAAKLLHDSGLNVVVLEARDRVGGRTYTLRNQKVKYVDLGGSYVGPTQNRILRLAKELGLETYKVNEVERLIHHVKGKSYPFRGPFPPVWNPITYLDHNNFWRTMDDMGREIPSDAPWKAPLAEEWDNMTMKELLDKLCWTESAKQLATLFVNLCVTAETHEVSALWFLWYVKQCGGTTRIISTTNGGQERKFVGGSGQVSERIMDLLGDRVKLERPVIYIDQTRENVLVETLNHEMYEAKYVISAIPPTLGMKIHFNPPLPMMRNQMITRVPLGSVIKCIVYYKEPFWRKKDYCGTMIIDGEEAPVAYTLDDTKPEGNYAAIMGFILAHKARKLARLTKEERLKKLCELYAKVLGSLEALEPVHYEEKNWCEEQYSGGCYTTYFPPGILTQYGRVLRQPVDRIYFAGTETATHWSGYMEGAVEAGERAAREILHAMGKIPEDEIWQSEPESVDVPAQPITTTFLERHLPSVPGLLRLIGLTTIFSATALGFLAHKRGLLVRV
Method: Inhibitory potency on MAO-B enzyme from recombinant human MAO-B were carried out by a fluorometric method with a commercial kit (Promega, MAO-Glo Assay). The MAO enzyme incubation experiments were carried with a MAO-B substrate, methyl (S)-2-(6-(2-aminoethoxy) benzo[d]thiazol-2-yl)-4,5-dihydrothiazole-4-carboxylate, which was converted to luciferin methyl ester. Then the “Luciferin Detection Reagent” was added to change the methyl ester derivative to luciferin, stop the MAO-B reaction, and simultaneously produce light. The intensity of light is directly in proportion to MAO-B activity. The assay was carried in a 96-well black opaque microplate in duplicate. The reaction mixture was composed of 12.5 μL of MAO-B substrate (a final concentration of 4 μM), 25 μL of human MAO-B (1 μg of protein/well), and 12.5 μL of test compounds for each well. After 1 h of incubation at 37 °C, each well added 50 μL of “Luciferin Detection Reagent”, and incubated an additional 20 min. the luminescent signal of microplate was measured by a luminometer. The signal from reaction of MAO-B enzyme and substrate without inhibitors accounted as the positive control, whereas the signal from reaction of MAO-B enzyme and inhibitors in the absence of substrate accounted as the negative control. Compound concentrations of 1 μM were tested at first. IC50 values (the half maximal inhibitory concentration) were performed from concentration–response curves, plotted by the GraphPad Prism software. All experiments were performed in duplicate, and data are expressed as mean ± SD.

human A2AR = molecular target: T2, human A2AR (Homo sapiens, UniProt P29274); assay: Radioligand binding assay ([3H]ZM241385 competition) on membranes of HEK-293 cells transfected with human A2AR; details: [3H]ZM241385 displacement; Ki converted from IC50 by Cheng-Prusoff; duplicate, mean ± SD; read-out: Ki hA2AR
T2 construct: expressed in transfected cells
T2 sequence (P29274 whole entry): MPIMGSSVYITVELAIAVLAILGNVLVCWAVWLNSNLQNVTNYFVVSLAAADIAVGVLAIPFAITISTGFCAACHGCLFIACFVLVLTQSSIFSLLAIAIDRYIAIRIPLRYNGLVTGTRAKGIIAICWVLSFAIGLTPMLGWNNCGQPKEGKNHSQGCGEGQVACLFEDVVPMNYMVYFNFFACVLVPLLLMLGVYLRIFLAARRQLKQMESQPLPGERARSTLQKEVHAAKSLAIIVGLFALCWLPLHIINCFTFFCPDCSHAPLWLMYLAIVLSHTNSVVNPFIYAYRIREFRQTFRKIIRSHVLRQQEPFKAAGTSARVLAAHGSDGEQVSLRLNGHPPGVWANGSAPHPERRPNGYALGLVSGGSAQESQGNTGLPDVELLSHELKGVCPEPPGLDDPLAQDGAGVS
Method: The binding affinity of test compounds was determined using radioligand binding assays. Human A2AR cDNA was stably transfected into HEK-293 cells. Membranes from the transfected cell were used in the interactive capacity of each compound toward the A2AR. Competition binding assay experiments by incubating membranes of 10 μg protein with 2 nM [3H]ZM241385 were carried out, with interval concentrations ranging from 0.1 nM to 100 μM of test compounds in 96-well filter plates at 4 °C for 90 min. After incubation experiments, free and bound radioligands were split by filtering and washing. Last, filter-bound radioactivity was counted after addition of 30 μL/well of scintillation solution. Nonspecific binding was measured in the presence of 100 μM ZM241385. The experiments were carried in duplicate. IC50 values were determined using a nonlinear regression curve fitting by the program GraphPad Prism. The affinities of compounds were calculated by Ki value which was from the IC50 values according as the Cheng−Prusoff equation [19].

[1] = Plasma pharmacokinetics after i.p. administration; assay type: in vivo, Sprague-Dawley rats; details: 50 mg/kg, rats
From the text: (§1) Sprague-Dawley rats (200 ± 20 g) were obtained from the Laboratory Animal Center of Wenzhou Medical University (Wenzhou, China) to study the pharmacokinetics and tissue distribution studies (TDS) of PX-D-P6 and PX-E-P8 following intraperitoneal injection (i.p.) administration. The experiment procedures and protocols were approved the Animal Care and Use Committee of Wenzhou Medical College and complied with the Guide for the Care and Use of Laboratory Animals. The corresponding ethical approval code was WMU20161025.
(§2) The chosen compounds dissolved in suspension formulation (2 % Tween 80–saline) were administered to each rat at a dose of 50 mg/kg. Blood samples (0.3 mL) were collected from the caudal vein into 1.5 mL tapered plastic centrifuge tubes (pretreated with K2EDTA as an anticoagulant) at pre-dose, 0.08, 0.16, 0.25, 0.5, 1, 2, 4, 8, 12, 24 h after i.p. administration. Separately, blood and brain samples were collected at pre-dose and 1 h for TDS. Blood samples were immediately centrifuged at 3000 g for 10 min for isolation of the plasma. Brain samples were homogenized in phosphate buffer saline. 100 μL plasma or 200 μL brain sample was precipitated with addition of 400 μL acetonitrile and vortex mixed for 1 min and centrifuged at 10,000 g for 10 min. Finally, 2μL supernatant was injected into UPLC/MS system. Calibration standards samples were prepared with blank rat plasma or brain homogenates. Plasma pharmacokinetic parameters were analyzed by DAS (Drug and Statistics) software (Version 2, Wenzhou Medical University, Wenzhou, China).

[2] = Plasma and brain distribution at 1 h after i.p. administration; assay type: in vivo; details: Sprague-Dawley, rat, ip, rats, 1 h after i.p. 50 mg/kg; for concentration at 1 h: n = 6
From the text: as §1, §2

[3] = system: haloperidol-induced catalepsy in rats; assay: Haloperidol-induced catalepsy, bar test; assay type: in vivo; details: i.p.
Method: Catalepsy was measured using a thin metal bar test at 9.0 cm height. In this test, each rat was injected intraperitoneally by haloperidol (1.5 mg/kg). Before i.p. administration of vehicle (2% Tween 80–saline), PX-D-P6 and PX-E-P8 (5, 15, 50 mg/kg), at time 0 min, we tested all rats for successful induction of catalepsy. The length of time (descent latency) it persisted in hanging onto the metal bar was measured for a period of up to 300 s (maximum score). After this period, the rat was gently removed from the bar. The high bar test was performed 20 min after the injection of compound. Descent latencies have been presented as median and interquartile ranges. Differences between medians were analyzed by Kruskal-Wallis test, followed by Bonferroni's test.

[4] = Sprague-Dawley, rat, plasma, ip, n = 6

**Q.** Which Ki (recombinant human MAO-B) does the source give for `CCn1c(=O)c2c(nc(/C=C/c3ccc(OC)c(OC)c3)n2C)n(CC)c1=O` [Istradefylline, reference compound] here?
**A.** The Ki was > 10000 nM.

**Q.** With `COc1ccc(C(=O)Nc2cccc(-c3nc4c([nH]3)c(=O)n(C)c(=O)n4C)c2)cc1OC` [PX-D-M5, N-(3-(1,3-Dimethyl-2,6-dioxo-2,3,6,7-tetrahydro-1H-purin-8-yl)phenyl)-3,4-dimethoxybenzamide] as the molecule, how does the Ki (human A2AR) read?
**A.** Its Ki is 4990 ± 750 nM.

**Q.** And the Ki (recombinant human MAO-B)?
**A.** Its Ki is 2360 ± 310 nM.

**Q.** And the melting point?
**A.** The melting point was > 300 °C.

**Q.** For `Cn1c(=O)c2c(nc(-c3cccc(NC(=O)c4cccc(Cl)c4)c3)n2C)n(C)c1=O` [PX-D-M9, 3-Chloro-N-(3-(1,3,7-trimethyl-2,6-dioxo-2,3,6,7-tetrahydro-1H-purin-8-yl)phenyl)benzamide], which Ki (human A2AR) is on record?
**A.** The Ki was 2440 ± 210 nM.

**Q.** What about the Ki (recombinant human MAO-B) of the same molecule?
**A.** The Ki was 760 ± 110 nM.

**Q.** And the melting point?
**A.** The melting point was > 300 °C.

**Q.** For `COc1ccc(C(=O)Nc2cccc(-c3nc4c(c(=O)n(C)c(=O)n4C)n3C)c2)cc1OC` [PX-D-M10, 3,4-Dimethoxy-N-(3-(1,3,7-trimethyl-2,6-dioxo-2,3,6,7-tetrahydro-1H-purin-8-yl)phenyl)benzamide], which Ki (human A2AR) is on record?
**A.** The Ki was 3590 ± 360 nM.

**Q.** And the Ki (recombinant human MAO-B)?
**A.** The Ki was 2540 ± 310 nM.

**Q.** And the melting point?
**A.** The melting point was > 300 °C.

**Q.** For `Cn1c(=O)c2[nH]c(-c3cccc(NC(=O)c4cccc(Cl)c4)c3)nc2n(C)c1=O` [PX-D-M 4, 3-Chloro-N-(3-(1,3-dimethyl-2,6-dioxo-2,3,6,7-tetrahydro-1H-purin-8-yl)phenyl)benzamide], which Ki (human A2AR) is on record?
**A.** The Ki was 3610 ± 410 nM.

**Q.** What about the Ki (recombinant human MAO-B) of the same molecule?
**A.** The Ki was 1270 ± 180 nM.

**Q.** What about the melting point of the same molecule?
**A.** Its melting point is > 300 °C.

**Q.** With `Cn1c(=O)c2[nH]c(-c3ccc(NC(=O)c4cccc(Cl)c4)cc3)nc2n(C)c1=O` [PX-D-P4, 3-Chloro-N-(4-(1,3-dimethyl-2,6-dioxo-2,3,6,7-tetrahydro-1H-purin-8-yl)phenyl)benzamide] as the molecule, how does the Ki (human A2AR) read?
**A.** The Ki was 1520 ± 160 nM.

**Q.** And the Ki (recombinant human MAO-B)?
**A.** Its Ki is 250 ± 50 nM.

**Q.** What about the melting point of the same molecule?
**A.** The melting point was > 300 °C.

**Q.** What does the source list for `COc1ccc(C(=O)Nc2ccc(-c3nc4c([nH]3)c(=O)n(C)c(=O)n4C)cc2)cc1OC` [PX-D-P5, N-(4-(1,3-Dimethyl-2,6-dioxo-2,3,6,7-tetrahydro-1H-purin-8-yl)phenyl)-3,4-dimethoxybenzamide]?
**A.** Ki (human A2AR): 4270 ± 510 nM; Ki (recombinant human MAO-B): 1920 ± 250 nM; melting point: > 300 °C

**Q.** Which results are given for `Cn1c(=O)c2c(nc(-c3ccc(NC(=O)c4cccc(Cl)c4)cc3)n2C)n(C)c1=O` [PX-D-P9, 3-Chloro-N-(4-(1,3,7-trimethyl-2,6-dioxo-2,3,6,7-tetrahydro-1H-purin-8-yl)phenyl)benzamide]?
**A.** Ki (human A2AR): 270 ± 80 nM; Ki (recombinant human MAO-B): 1510 ± 190 nM; melting point: > 300 °C

**Q.** Which Ki (human A2AR) does the source give for `COc1ccc(C(=O)Nc2ccc(-c3nc4c(c(=O)n(C)c(=O)n4C)n3C)cc2)cc1OC` [PX-D-P10, 3,4-Dimethoxy-N-(4-(1,3,7-trimethyl-2,6-dioxo-2,3,6,7-tetrahydro-1H-purin-8-yl)phenyl)benzamide] here?
**A.** Its Ki is 1340 ± 160 nM.

**Q.** And the Ki (recombinant human MAO-B)?
**A.** Its Ki is 2970 ± 370 nM.

**Q.** And the melting point?
**A.** The melting point was > 300 °C.

**Q.** Which melting point does the source give for `COc1ccc(/C=C/C(=O)Nc2cccc(-c3nc4c([nH]3)c(=O)n(C)c(=O)n4C)c2)cc1OC` [PX-E-M5] here?
**A.** The melting point was > 300 °C.

**Q.** For `COc1ccc(/C=C/C(=O)Nc2cccc(-c3nc4c(c(=O)n(C)c(=O)n4C)n3C)c2)cc1OC` [PX-E-M10], which melting point is on record?
**A.** Its melting point is > 300 °C.

**Q.** With `Cn1c(=O)c2[nH]c(-c3ccc(NC(=O)/C=C/c4cccc(Cl)c4)cc3)nc2n(C)c1=O` [PX-E-P4, (E)-3-(3-Chlorophenyl)-N-(4-(1,3-dimethyl-2,6-dioxo-2,3,6,7-tetrahydro-1H-purin-8-yl)phenyl)acrylamide] as the molecule, how does the Ki (human A2AR) read?
**A.** Its Ki is 6430 ± 980 nM.

**Q.** And the Ki (recombinant human MAO-B)?
**A.** Its Ki is 1750 ± 150 nM.

**Q.** And the melting point?
**A.** The melting point was > 300 °C.

**Q.** Which results are given for `Cn1c(=O)c2c(nc(-c3ccc(NC(=O)/C=C/c4cccc(Cl)c4)cc3)n2C)n(C)c1=O` [PX-E-P8, (E)-3-(3-Chlorophenyl)-N-(4-(1,3,7-trimethyl-2,6-dioxo-2,3,6,7-tetrahydro-1H-purin-8-yl)phenyl)acrylamide]?
**A.** Ki (human A2AR): 850 ± 110 nM; Ki (recombinant human MAO-B): 630 ± 110 nM; Tmax ([1]; Sprague-Dawley, rat, plasma, ip, n = 6, read-out: Tmax): 28.8 min; AUC(0-t) [1, 4]: 15600 ± 1540 ng·h/mL; Cmax [1, 4]: 1640 ± 436 ng/mL; half-life [1, 4]: 196 ± 23.4 min; CL ([1]; n = 6): 171.3 ± 36.5 mL/min/kg; Tmax ([1]; n = 6): 27 ± 12.6 min; Kp at 1 h ([2]; brain and plasma, read-out: B/P Ratio (brain/plasma ratio)): 0.97; concentration at 1 h ([2]; brain, read-out: Brain concentration): 887 ± 113 ng/g; concentration at 1 h ([2]; plasma, read-out: Plasma concentration): 915 ± 231 ng/mL; Anti-catalepsy ability ([3]; 50 mg/kg (high dose)): significant anti-catalepsy ability; Effect on haloperidol-induced catalepsy ([3]; different doses (5, 15 and 50 mg/kg), haloperidol 1.5 mg/kg): significant reduction in catalepsy; Anti-catalepsy effect ([3]; low dose): slight effects; melting point: > 300 °C
